Assay results published in patent US8859728B2, “Peptides that target dorsal root ganglion neurons” (Baylor College of Medicine, priority 2008, dated 2014).
Where no end group is shown, it is not given here.

Tests used:
DRG neurons = assay: In vivo binding of GST-peptide-fusion proteins to DRG neurons after subarachnoid injection; set-up: species or system mouse; conditions: L5 DRG; for NF-L-positive neurons positive for GST fusion protein: 5 μg into subarachnoid space, C57BL/6 mice, 1 h; for mean diameter of cells positive for GST fusion protein: in vivo, mean±SD
Excerpt: To evaluate their binding to DRG cells in vivo, GST fusion proteins of three selected peptides were synthesized using the pGEX4T-1 vector kit (Amersham, Piscataway, N.J.) according to the manufacturer's instructions. Briefly, oligonucleotides for C-DRG1-C, C-DRG2-C, and C-DRG3-C were synthesized cloned into the pGEX4T-1 vector, and transformed in E. coli. The synthesized GST-fusion proteins were pull down by Glutathione Sepharose 4B (Amersham), and purified. The purities and reactions to anti-GST antibodies (Amersham) were confirmed by gel-electrophoresis stained by Coomassie Blue and anti-GST immunoblotting.
Under intraperitoneal pentobarbiturate anesthesia (0.1 mg/g BW), 10 μl (500 μg/ml) of purified GST-fusion proteins (GST-DRG1, GST-DRG2, GST-DRG3, or GST alone) were injected into the subarachnoid space of 8-week-old female C57BL/6 mice (n=3 each). After 1 h, the mice were sacrificed and transcardially perfused with cold saline followed by 4% paraformaldehyde, 0.5% glutaraldehyde and 0.3% picric acid in 0.1 M PBS (pH 7.4). The L5 DRGs were then isolated and cut sectioned (10 μm) for fluorescence immunohistochemistry. After blocking with 10% horse serum, the sections were incubated overnight at 4° C. with goat anti-GST antibody (Amersham) diluted 1:1000 and rabbit anti-neurofilament L (NF-L, non-phosphorylated form, Chemicon, Temecula, Calif.) antibody diluted 1:100 in PBST. The sections were incubated for 1 h with Alexa Fluor 488-labeled anti-goat IgG and Alexa Fluor 555-labeled anti-rabbit IgG (Molecular Probes, Eugene, Oreg.) at room temperature, mounted with VECTASHIELD mounting medium containing 4′,6-diamidino-2-phenylindole (DAPI) (Vector Laboratories Inc., Burlingame, Calif.), and observed under a fluorescence microscope (Axioplan 2 imaging and Axiocam, Carl Zeiss, Jena, Germany). For quantitative analysis, the inventors took pictures of randomly selected fields and measured diameters (long and short) of the cells positive for GST, NF-L and DAPI. The mean cell size was calculated as the mean of the long and short diameters, and cell-size differences were evaluated in the three different groups.

isolated DRG neurons = assay: Double staining of isolated DRG neurons after incubation with DRG-p1 and GST-DRG3; format: cell-based, mouse; conditions: antibodies against phage and GST
Excerpt: The Ph.D.-C7C Phage display Peptide Library kit expresses random 7-amino acid peptides fused to the minor coat protein (pIII) of the M13 phage. By sequence analysis, only 113 phage plaques were represented in the bound peptide, consistent with a very efficient selection process (Table 2). The final binding studies allowed identification of three phages (DRG1, DRG2, or DRG3) that occurred repeatedly. In specific embodiments of the invention, the efficient identification of these clones was the result of multiple rounds of positive and negative selection using the biopanning protocol (Liang et al., 2006), although in specific cases some of the other 84 clones (Table 2) are true DRG-binding peptide-phages. […] Moreover, the size specificity of target neurons for individual peptides was confirmed by in vivo binding experiments: GST-DRG1 and GST-DRG3 recognized small-sized neurons, and GST-DRG2 recognized large-sized neurons. Since both DRG1 and DRG3 recognized small sized neurons, two peptide ligands might bind to the same cell populations. Therefore, double staining was performed of isolated DRG neurons after the incubation with DRG-p1 and GST-DRG3 by antibodies against phage and GST, respectively. Double positive staining was obtained in 51% of DRG-p1-positive neurons, and was in 71% of GST-DRG3-positive neurons, respectively. […]

Substance | NF-L-positive neurons positive for GST fusion protein (DRG neurons) [%] | mean diameter of cells positive for GST fusion protein (DRG neurons) [μm] | double positive staining (DRG-p1 and GST-DRG3) as share of neurons positive for the named ligand (isolated DRG neurons) [%]
GST-DRG1: GST fusion protein of peptide C-DRG1-C made with pGEX4T-1 in E. coli (CSPGARAFC; cysteine pairing not given here; also: GST fusion protein, GST not in chain) | 39 | 21.6±5.2 | 
GST-DRG2: GST fusion protein of peptide C-DRG2-C made with pGEX4T-1 in E. coli (CDGPWRKMC; cysteine pairing not given here; also: GST fusion protein, GST not in chain) | 25 | 33.5±7.4 | 
GST-DRG3: GST fusion protein of peptide C-DRG3-C made with pGEX4T-1 in E. coli (CFGQKASSC; cysteine pairing not given here; also: GST fusion protein, GST not in chain) | 14 | 22.7±6.6 | 71
